This is an account of results in patent publication US20130324508A1, “BIOMARKER FOR PROSTATE CANCER AND METHOD OF USING THE SAME” (UNIVERSITY OF TENNESSEE RESEARCH FOUNDATION, priority 2012, published 2013).

The target in experiment [1] is Human GPRC6A, endogenous in human prostate cancer cell lines 22Rv1 and PC-3 (human) (UniProt Q5T6X5). In words: cell-based or functional assay.
Experiment [2] deals with PC-3. The note with it: androgen-independent PC-3 cells; cited from earlier work.
In a further experiment the test system is DU145. The settings on record: androgen-independent DU145 cells; cited from earlier work.
The next experiment relates to LNCaP. The note with it: androgen-dependent LNCaP cells; cited from earlier work.
The subject of experiment [3] is 22Rv1. The experiment in a line: Chemotaxis assay of 22Rv1 cells. It counts as cell-based, human. The settings on record: migration toward calcium or OC, various concentrations; FIG. 6C. On the procedure: The migration of 22Rv1 cells stably expressing negative control siRNA and human GPRC6A-specific siRNA using a previously described chemotaxis assay (22). The migration index was calculated, and was defined as number of cells crossing the filter toward calcium or OC (various concentrations)/number of cells migrating toward medium alone (control). Each experiment was performed at least three times, in duplicate.
Now referring to FIG. 6. To assess whether GPRC6A mediates prostate cancer cells chemotaxis and metastases, the ability of calcium and OC to evoke chemotaxis of human prostate cancer cell 22Rv1 expressing GPRC6A was examined. The ligands of GPRC6A, OC, arginine and R1881 stimulated gene expression of PSA (FIG. A) and Runx2 (FIG. B) were attenuated by GPRC6A siRNA in 22Rv1, human prostate cancer cells. […] The experiments were described in Materials and methods. In all of the above studies, values for relative cell proliferation (expressed as percent of control) represent the mean±SEM of a minimum of three separate experiments.

Experiment [4] concerns PC-3. The experiment in a line: ERK activation in PC-3 prostate cancer cells (Western blot). It counts as cell-based, human. The note with it: PC-3 (androgen receptor negative); calcium 10 mM, zinc 0.2 mM, OC 20 ng/ml, arginine 20 mM, testosterone-BSA 60 nM; 5 min; FIG. 2B. On the procedure:
(§1) Briefly, human prostate cancer cells and the cells transfected with GPRC6A will be made quiescent by overnight incubation in serum-free DMEM/F12 containing 0.1% BSA and stimulated with various ligands at different doses. ERK activation will be assessed 5 to 30 minutes after treatment by immunoblotting using anti-phospho-ERK1/2 MAP kinase antibody (Cell Signaling Technology) corrected for the amount of ERK using an anti-ERK1/2 MAP Kinase antibody (Cell Signaling Technology) to measure ERK levels.
(§2) Referring to FIG. 2. […] Here, calcium (1-20 mM), zinc (0.2-0.8 mM), OC (5-60 ng/ml), arginine (5-30 mM), and testosterone-BSA (5-100 nM) are confirmed to be functional ligands for GPRC6A (16-17, 19). […] Calcium (10 mM), zinc (0.2 mM), OC (20 ng/ml), arginine (20 mM), and testosterone-BSA (60 nM) increased phospho-ERK in both of these cells. The HEK cells transfected with GPRC6A or without the plasmid cDNA of GPRC6A or 22Rv1 or PC-3 were incubated in Dulbecco's modified Eagle's medium/F-12 containing 0.1% bovine serum albumin quiescence media and exposed to the extracellular calcium, OC, arginine, or testosterone-BSA at indicated concentrations for 5 min, and ERK activation was determined as described under Materials and Methods. Representative blots are shown, and the results were verified in at least three independent experiments.
(§3) To confirm the importance of GPRC6A signaling in prostate cancer cell line, the response to GPRC6A ligands was accessed after knock-down of GPRC6A using siRNA. For these studies, ERK activity was assessed in 22Rv1 and PC-3 cells stably transfected with GPRC6A siRNA-202 and siRNA-514. These responses were compared control groups consisting of mock-transfected cells and transfected cells with a random negative control siRNA plasmid.

The subject of experiment [5] is PC-3. In words: PSA and Runx 2II gene expression in PC-3 cells (real time RT-PCR). The experiment is classed as cell-based, human. The settings on record: 8 hours stimulation. As for the experimental part: (§4) Human tissue cDNAs were obtained from Clontech Laboratories, Inc. Total RNA from human prostate cancer cells was isolated with RNeasy Mini Kit (Qiagen Inc., Valencia, Calif.). RT-PCR was done using two-step RNA PCR (Perkin-Elmer). In separate reactions, 2.0 μg of DNase-treated total RNA was reverse-transcribed into cDNA with the respective reverse primers specified below and Moloney murine leukemia virus reverse transcriptase (Gibco Life Technologies, Inc.). Reactions were carried out at 42° C. for 60 min followed by 94° C. for 5 min and 5° C. for 5 min. The products of first-strand cDNA synthesis were directly amplified by PCR using AmpliTaq DNA polymerase (Perkin-Elmer). The primers for human GPRC6A are as follows: hGPRC6A.F203: […] (SEQ ID NO: 1) and hGPRC6A.R630: […] (SEQ ID NO: 2). For housekeeping gene control G3PDH gene, G3PDH.F143: […] (SEQ ID NO: 3) and G3PDH.R1050: […] (SEQ ID NO: 4). For quantitative real time RT-PCR assessment of PSA and Runx 2II genes expression, total RNA was isolated and reverse transcribed from 22Rv1 cells that stimulated with or without OC (80 ng/ml), arginine (30 mM) and R1881 (100 nM) as previously described using specific primer sets. The primers sequences were PSA. For: […] (SEQ ID NO: 5) and PSA.Rev: […] (SEQ ID NO: 6); Runx 2. For: […] (SEQ ID NO: 7) and Runx 2. Rev: […] (SEQ ID NO: 8), and the threshold cycle (Ct) of tested-gene product from the indicated genotype was normalized to the Ct for cyclophilin A as previously described (18).
(§5) After 8 hours stimulation, OC, arginine and R1881 stimulated PSA and Runx 2II gene expression in human prostate cancer 22Rv1 (FIG. 4A and FIG. 4B) and PC-3 cells (FIG. 4C and FIG. 4D). * indicates a significant difference from control and stimulation at p<0.05 respectively.

Experiment [6] has as its system non-transfected HEK-293 cells. In words: ERK activation in non-transfected HEK-293 cells (Western blot). It counts as cell-based. The note with it: same ligand concentrations, 5 min. As for the experimental part: as §1, §2
In general terms: In western blotting, separated proteins are transferred to a membrane and probed.

Experiment [7] has as its system 22Rv1. The experiment in a line: ERK activation in 22Rv1 prostate cancer cells (Western blot). It counts as cell-based, human. The settings on record: 22Rv1 (androgen receptor positive); calcium 10 mM, zinc 0.2 mM, OC 20 ng/ml, arginine 20 mM, testosterone-BSA 60 nM; 5 min; FIG. 2B. On the procedure: as §1, §2, §3
The test system of the next experiment is 22Rv1 or PC-3. In words: Cell proliferation by hemocytometer cell count. It counts as cell-based, human. The settings on record: 22Rv1 or PC-3, 72 h culture, versus control without added ligand; FIG. 3. As for the experimental part:
The prostate cancer cell lines 22Rv1, PC-3 and LNcaP and the prostate cell lined RWPE-1 derived from normal prostate were obtained from the American Type Culture Collection (Manassas, Va.). The prostate cells were maintained in RPMI 1640 supplemented with 10% fetal bovine serum (Gibco Life Technologies, Inc.). Cells (10^3 cells/well) were cultured in triplicate in a 96-well flat-bottomed microculture dish using RPMI 1640 containing 10% CFBS in the presence and absence of various concentrations of GPRC6A ligands, including: calcium, amino acids, calcimimetic and OC for 72 h. Cell proliferation was determined by counting cells with a hemocytometer (21).
Now referring to FIG. 3. To determine if GPRC6A ligands enhance prostate cell growth, changes were accessed in cell numbers in 22Rv1 and PC-3 cells exposed to different concentrations of extracellular calcium or OC over a three-day culture period. […] Cell proliferation was determined by counting cells in a hemocytometer method as described in Materials and methods. In all of the above studies, values for relative cell proliferation (expressed as percent of control) represent the mean±SEM of a minimum of three separate experiments. * indicates a significant difference from control and stimulation at p<0.05, respectively.

A further experiment has as its system GPRC6A. In words: ERK activation in HEK-293 cells transfected with GPRC6A (Western blot). The experiment is classed as cell-based. The note with it: HEK-293 overexpressing GPRC6A; 5 min; calcium 1-20 mM, zinc 0.2-0.8 mM, OC 5-60 ng/ml, arginine 5-30 mM, testosterone-BSA 5-100 nM; FIG. 2A. As for the experimental part: as §1, §2
Experiment [8] relates to 22Rv1. In words: PSA and Runx 2II gene expression in 22Rv1 cells (real time RT-PCR). The experiment is classed as cell-based, human. The note with it: 22Rv1, 8 hours stimulation, OC 80 ng/ml, arginine 30 mM, R1881 100 nM. On the procedure:
as §4, §5
To investigate whether the observed ligand-induced PSA and Runx2 gene expression in the prostate cancer cells is due to simulation of GPRC6A, the response to GPRC6A ligands was examined after knock-down of GPRC6A. ERK activity was assessed in 22Rv1 stably transfected with GPRC6A siRNA-514 and compared this response to transfected cells with a random negative control siRNA plasmid, which were used as controls.
A general note: In qPCR the cycle at which signal appears reflects the starting amount.

In the next experiment the test system is PC-3 cells. The note with it: PC-3 cells treated with ERK pathway inhibitor; cited from earlier work.

Ends that are not written are not given here.

Chain of UniProt Q5T6X5 (Q5T6X5 19-926): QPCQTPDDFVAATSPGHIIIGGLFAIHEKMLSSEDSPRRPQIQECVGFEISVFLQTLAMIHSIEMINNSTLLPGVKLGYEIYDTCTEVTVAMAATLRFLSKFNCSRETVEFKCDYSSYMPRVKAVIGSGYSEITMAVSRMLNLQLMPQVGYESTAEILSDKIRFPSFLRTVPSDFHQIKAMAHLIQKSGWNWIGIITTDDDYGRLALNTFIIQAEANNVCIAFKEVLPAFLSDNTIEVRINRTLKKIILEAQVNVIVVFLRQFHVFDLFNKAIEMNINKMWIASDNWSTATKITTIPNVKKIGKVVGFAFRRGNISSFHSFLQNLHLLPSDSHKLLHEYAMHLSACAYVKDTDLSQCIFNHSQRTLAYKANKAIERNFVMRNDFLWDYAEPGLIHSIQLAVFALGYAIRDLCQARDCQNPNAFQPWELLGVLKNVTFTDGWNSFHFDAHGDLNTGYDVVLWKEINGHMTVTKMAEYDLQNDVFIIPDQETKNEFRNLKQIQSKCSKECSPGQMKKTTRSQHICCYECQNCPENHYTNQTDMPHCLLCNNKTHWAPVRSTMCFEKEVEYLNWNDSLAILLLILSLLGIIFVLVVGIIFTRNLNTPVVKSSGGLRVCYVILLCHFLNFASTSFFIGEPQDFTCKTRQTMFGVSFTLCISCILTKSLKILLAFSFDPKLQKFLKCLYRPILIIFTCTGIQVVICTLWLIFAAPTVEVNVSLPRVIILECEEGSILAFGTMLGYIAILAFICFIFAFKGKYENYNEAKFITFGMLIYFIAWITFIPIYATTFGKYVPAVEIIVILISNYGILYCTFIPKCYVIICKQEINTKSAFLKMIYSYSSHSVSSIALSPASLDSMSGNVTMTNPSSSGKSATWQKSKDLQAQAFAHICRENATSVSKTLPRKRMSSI

As to “Osteocalcin (purified from bovine bone) (from UniProt P02820 52-100) (ligand)”, the cell number after 72 h culture of 22Rv1 and PC-3 cells with OC in [1] is 70%.

For `C[N+](C)(C)CCOC(N)=O` [carbachol], the ERK phosphorylation entry is given as “ERK phosphorylation is noted” with PC-3 [2], “ERK phosphorylation is noted” in the experiment on DU145 and “not” in the experiment with LNCaP.

In the case of “OC: Osteocalcin (purified from bovine bone), vitamin-K dependent hormone, GPRC6A ligand (YLDHWLGAPAPYPDPLEPKREVCELNPDCDELADHIGFQEAYRRFYGPV; ends and bridges not checked; cysteine pairing not given here; UniProt P02820 52-100, looked up)”, the “chemotaxis of 22Rv1 prostate cancer cells” value with 22Rv1 [3] was “induced the chemotaxis”. The phospho-ERK entry with PC-3 [4] and in the experiment with 22Rv1 [7] was “increased” in each case. Besides, the PSA gene expression entry with PC-3 [5] (FIG. 4C) and in the experiment on 22Rv1 [8] (FIG. 4A) was “stimulated” in each case. Moreover, the “Runx 2II gene expression” value in the experiment with PC-3 [5] (FIG. 4D) and in the experiment on 22Rv1 [8] (FIG. 4B) was “stimulated” each time. Further, the ERK response entry in experiment [6] is “failed to respond”. In addition, the “increase in cell number” value in the experiment with 22Rv1 or PC-3 is recorded as approximately 70%. The “stimulation of ERK activity” value with GPRC6A is listed as “dose-dependent stimulation”.

As to `COc1cccc(-c2cc(=O)c3ccccc3o2)c1N` [PD98059], in the experiment on PC-3 cells, the growth-factor-mediated cell proliferation entry is recorded as “obliterates”.
